Data: patent US4335249A, “Herbicidal diphenyl ethers, sulfides, sulfoxides and sulfones” (Rohm and Haas Company, priority 1976, dated 1982)

Columns and labels:
Type in all cases: in vivo
wild oats (Avena fatua) [1] = experiment: Postemergence herbicidal activity, wild oats; settings: Avena fatua, post-emergence, 336 h, Post, read-out: % control, Wild oat; for pest or weed control at 2241.7 g/ha: 2 lb/A
Outline: (§1)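 Step one: plant crop and weed seeds in soil flats. Step two: spray the acetone-dissolved, water-diluted compound (carrier 50 gal/A, dose in lb/A) immediately for preemergence, or after two weeks' growth for postemergence. Step three: about two weeks on, rate phytotoxicity as percent killed.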

[2] = system: velvetleaf (Abutilon theophrasti); experiment: Postemergence herbicidal activity, velvetleaf; settings: Abutilon theophrasti, post-emergence, 336 h; for pest or weed control at 2241.7 g/ha: 2 lb/A
Outline: (§2)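 Acetone solution diluted w/ water; spray, carrier 50 gal/acre equivalent; rate in lb/A. Pre: flats sprayed right after sowing. Post: sprayed 2 wk after germination. Weed control scored.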

marigold (Tagetes spp.) [3] = experiment: Postemergence herbicidal activity, marigold; settings: post-emergence, 336 h; for pest or weed control at 2241.7 g/ha: 2 lb/A
Outline: as §1

foxtail (Setaria spp.) [4] = experiment: Preemergence herbicidal activity, foxtail; settings: Setaria, pre-emergence, 336 h, Pre; for pest or weed control at 2241.7 g/ha: 2 lb/A
Outline: as §1

foxtail (Setaria spp.) [5] = experiment: Postemergence herbicidal activity, foxtail; settings: Setaria, post-emergence, 336 h, Post; for pest or weed control at 2241.7 g/ha: 2 lb/A
Outline: as §1

[6] = system: tomato (Lycopersicon esculentum); experiment: Preemergence herbicidal activity, tomato; settings: Solanum lycopersicum, pre-emergence, 336 h, Pre; for pest or weed control at 2241.7 g/ha: 2 lb/A
Outline: as §1

[7] = system: morningglory (Ipomoca spp.); experiment: Postemergence herbicidal activity, morningglory; settings: Ipomoea, post-emergence, 336 h; for pest or weed control at 2241.7 g/ha: 2 lb/A
Outline: as §1

[8] = system: downybrome (Bromus tectorum); experiment: Preemergence herbicidal activity, downybrome; settings: Bromus tectorum, pre-emergence, 336 h, Pre; for pest or weed control at 2241.7 g/ha: 2 lb/A
Outline: as §1

[9] = system: velvetleaf (Abutilon theophrasti); experiment: Preemergence herbicidal activity, velvetleaf; settings: Abutilon theophrasti, pre-emergence, 336 h, Pre; for pest or weed control at 2241.7 g/ha: 2 lb/A
Outline: as §1

[10] = system: yellow nutsedge (Cyperus esculentus); experiment: Preemergence herbicidal activity, yellow nutsedge; settings: Cyperus, pre-emergence, 336 h; for pest or weed control at 2241.7 g/ha: 2 lb/A
Outline: as §1

[11] = system: barnyardgrass (Echinochloa crusgalli); experiment: Postemergence herbicidal activity, barnyardgrass; settings: Echinochloa crus-galli, post-emergence, 336 h, Post; for pest or weed control at 2241.7 g/ha: 2 lb/A
Outline: as §2

[12] = system: yellow nutsedge (Cyperus esculentus); experiment: Postemergence herbicidal activity, yellow nutsedge; settings: Cyperus, post-emergence, 336 h; for pest or weed control at 2241.7 g/ha: 2 lb/A
Outline: as §1

[13] = system: barnyardgrass (Echinochloa crusgalli); experiment: Preemergence herbicidal activity, barnyardgrass; settings: Echinochloa crus-galli, pre-emergence, 336 h, Pre; for pest or weed control at 2241.7 g/ha: 2 lb/A
Outline: as §2

[14] = system: morningglory (Ipomoca spp.); experiment: Preemergence herbicidal activity, morningglory; settings: Ipomoea, pre-emergence, 336 h; for pest or weed control at 2241.7 g/ha: 2 lb/A
Outline: as §1

[15] = system: cocklebur (Xanthium pensylvanicum); experiment: Postemergence herbicidal activity, cocklebur; settings: Xanthium strumarium, post-emergence, 336 h; for pest or weed control at 2241.7 g/ha: 2 lb/A
Outline: as §1

[16] = system: downybrome (Bromus tectorum); experiment: Postemergence herbicidal activity, downybrome; settings: Bromus tectorum, post-emergence, 336 h, Post; for pest or weed control at 2241.7 g/ha: 2 lb/A
Outline: as §1

wild oats (Avena fatua) [17] = experiment: Preemergence herbicidal activity, wild oats; settings: Avena fatua, pre-emergence, 336 h, Pre, read-out: % control, Wild oat; for pest or weed control at 2241.7 g/ha: 2 lb/A
Outline: as §1

[18] = system: tomato (Lycopersicon esculentum); experiment: Postemergence herbicidal activity, tomato; settings: Solanum lycopersicum, post-emergence, 336 h, Post; for pest or weed control at 2241.7 g/ha: 2 lb/A
Outline: as §1

marigold (Tagetes spp.) [19] = experiment: Preemergence herbicidal activity, marigold; settings: pre-emergence, 336 h; for pest or weed control at 2241.7 g/ha: 2 lb/A
Outline: as §1

[20] = system: cocklebur (Xanthium pensylvanicum); experiment: Preemergence herbicidal activity, cocklebur; settings: Xanthium strumarium, pre-emergence, 336 h; for pest or weed control at 2241.7 g/ha: 2 lb/A
Outline: as §1

Row | SMILES | pest or weed control at 2241.7 g/ha (wild oats (Avena fatua) [1]) [%] | pest or weed control at 2241.7 g/ha [2] [%] | pest or weed control at 2241.7 g/ha (marigold (Tagetes spp.) [3]) [%] | pest or weed control at 2241.7 g/ha (foxtail (Setaria spp.) [4]) [%] | pest or weed control at 2241.7 g/ha (foxtail (Setaria spp.) [5]) [%] | pest or weed control at 2241.7 g/ha [6] [%] | pest or weed control at 2241.7 g/ha [7] [%] | pest or weed control at 2241.7 g/ha [8] [%] | pest or weed control at 2241.7 g/ha [9] [%] | pest or weed control at 2241.7 g/ha [10] [%] | pest or weed control at 2241.7 g/ha [11] [%] | pest or weed control at 2241.7 g/ha [12] [%] | pest or weed control at 2241.7 g/ha [13] [%] | pest or weed control at 2241.7 g/ha [14] [%] | pest or weed control at 2241.7 g/ha [15] [%] | pest or weed control at 2241.7 g/ha [16] [%] | pest or weed control at 2241.7 g/ha (wild oats (Avena fatua) [17]) [%] | pest or weed control at 2241.7 g/ha [18] [%] | pest or weed control at 2241.7 g/ha (marigold (Tagetes spp.) [19]) [%] | pest or weed control at 2241.7 g/ha [20] [%] | also measured
1 | CC(C#N)Oc1ccc(Oc2ccc(C(F)(F)F)cc2Cl)cc1 (centres unmarked) [Example 19, 2-[4-(2-chloro-4-trifluoromethylphenoxy)phenoxy] propionitrile] | 90 | 0 | 0 | 100 | 99 | 0 | 0 | 20 | 0 | 0 | 99 | 0 | 100 | 0 | 0 | 30 | 30 | 0 | 0 | 0 | 
2 | CCOC(=O)C(C)Oc1ccc(Oc2ccc(C(F)(F)F)cc2Cl)cc1OC (centres unmarked) [Example 8, Ethyl 2-[4-(2-chloro-4-trifluoromethylphenoxy)-2-methoxyphenoxy] propionate] | 0 | 0 | 0 | 99 | 0 | 0 | 0 | 0 | 0 | 0 | 0 | 0 | 0 | 0 | 0 | 0 | 0 | 0 | 0 | 0 | 
3 | CCCCCCCCOC(=O)C(C)Oc1ccc(Oc2ccc(C(F)(F)F)cc2Cl)cc1 (centres unmarked) [Example 26] | 20 | 50 | 70 | 0 | 100 | 0 | 70 | 0 | 0 | 0 | 100 | 20 | 50 | 0 | 60 | 50 | 50 | 30 | 0 | 0 | 
4 | CCCOC(=O)C(C)Oc1ccc(Oc2ccc(C(F)(F)F)cc2Cl)cc1 (centres unmarked) [Example 32] | 100 | 30 | 20 | 100 | 100 | 0 | 0 | 80 | 0 | 0 | 100 | 0 | 100 | 0 | 0 | 100 | 80 | 30 | 0 | 0 | 
5 | CCOC(=O)C(CC)Oc1ccc(Oc2ccc(C(F)(F)F)cc2Cl)cc1 (centres unmarked) [Example 20] | 100 | 50 | 0 | 100 | 100 | 0 | 0 | 90 | 0 | 0 | 100 | 20 | 99 | 0 | 0 | 30 | 40 | 30 | 0 | 0 | 
6 | CCOC(=O)C(C)Oc1ccc(Sc2cccc(C(F)(F)F)c2)cc1 (centres unmarked) [Example 45, Ethyl 2-[4-(3-trifluoromethylphenylthio)phenoxy] propionate] |  |  |  |  |  |  |  |  |  |  |  |  |  |  |  |  |  |  |  |  | pest or weed control at 4483.4 g/ha (wild oats (Avena fatua) [1]; 4 lb/A): 20%; pest or weed control at 4483.4 g/ha ([2]; 4 lb/A): 0%; pest or weed control at 4483.4 g/ha (marigold (Tagetes spp.) [3]; 4 lb/A): 0%; pest or weed control at 8966.8 g/ha (foxtail (Setaria spp.) [4]; 8 lb/A): 0%; pest or weed control at 4483.4 g/ha (foxtail (Setaria spp.) [5]; 4 lb/A): 30%; pest or weed control at 8966.8 g/ha ([6]; 8 lb/A): 0%; pest or weed control at 4483.4 g/ha ([7]; 4 lb/A): 0%; pest or weed control at 8966.8 g/ha ([8]; 8 lb/A): 0%; pest or weed control at 8966.8 g/ha ([9]; 8 lb/A): 0%; pest or weed control at 8966.8 g/ha ([10]; 8 lb/A): 0%; pest or weed control at 4483.4 g/ha ([11]; 4 lb/A): 20%; pest or weed control at 4483.4 g/ha ([12]; 4 lb/A): 0%; pest or weed control at 8966.8 g/ha ([13]; 8 lb/A): 0%; pest or weed control at 8966.8 g/ha ([14]; 8 lb/A): 0%; pest or weed control at 4483.4 g/ha ([15]; 4 lb/A): 0%; pest or weed control at 4483.4 g/ha ([16]; 4 lb/A): 20%; pest or weed control at 8966.8 g/ha (wild oats (Avena fatua) [17]; 8 lb/A): 0%; pest or weed control at 4483.4 g/ha ([18]; 4 lb/A): 80%; pest or weed control at 8966.8 g/ha (marigold (Tagetes spp.) [19]; 8 lb/A): 0%; pest or weed control at 8966.8 g/ha ([20]; 8 lb/A): 0%
7 | CCCCOC(=O)C(C)Oc1ccc(Oc2ccc(C(F)(F)F)cc2Cl)cc1 (centres unmarked) [Example 23] | 100 | 40 | 30 | 100 | 100 | 0 | 20 | 99 | 0 | 30 | 100 | 0 | 100 | 0 | 0 | 99 | 80 | 99 | 0 | 0 | 
